From US20240279201A1, “DUAL WNT SIGNALING PATHWAY INHIBITORS AND AMPK ACTIVATORS FOR TREATMENTS OF DISEASE” (priority 2021, published 2024) come the findings set out here.

For data set [1], the system named is Wnt/β-Catenin signaling pathway. Description: Wnt signaling luciferase (TOPflash) reporter gene assay. Type of data set: cell-based. The conditions noted are these: for IC50: luciferase reporter gene assay, mean of three independent experiments, read-out: IC50 (nM) to inhibit the Wnt signaling activity. From the text:
A dual-luciferase gene reporter assay was used to test inhibitory activities of new compounds on Wnt signaling. […] Therefore, the effects of new compounds on AMPK was examined. […]

Data set [2] can be described thus: Cytotoxicity (CC50) during the luciferase gene reporter assay. The class given is cell-based. The following applies: human, HEK293 cells; short treatment duration of the luciferase gene reporter assay. In general terms: Reporter assays use an easily measured gene product as a stand-in for the process of interest.

Structures are written as SMILES.

Consider `Cc1ccccc1-n1nnc(C(=O)Nc2cc3ccccc3cn2)c1C` [YA6164, N-(Isoquinolin-3-yl)-5-methyl-1-(o-tolyl)-1H-1,2,3-triazole-4-carboxamide], for which the half-maximal inhibitory concentration (IC50) in data set [1] is over 1000 nM. Also, the CC50 in data set [2] was over 92000 nM.
With `Cc1ccccc1-n1nnc(C(=O)Nc2cnc3ccccc3n2)c1C` [YA6045, 5-Methyl-N-(quinoxalin-2-yl)-1-(o-tolyl)-1H-1,2,3-triazole-4-carboxamide], in data set [1], the IC50 came to 1.8 nM. The molecule also had a CC50 in data set [2] of over 92000 nM.
For the molecule `Cc1ccccc1-n1nnc(C(=O)Nc2nc(-c3ccccc3Cl)cs2)c1C` [YA4145], the IC50 in data set [1] is over 1000 nM. For the same molecule, in data set [2], the CC50 was over 92000 nM.
For `O=C(Nc1cnc2ccccc2n1)c1nnn(-c2ccccc2)n1` [YA6177, 2-Phenyl-N-(quinoxalin-2-yl)-2H-tetrazole-5-carboxamide], in that order: over 1000 nM and over 92000 nM.
For `Cc1ccccc1-n1nnc(C(=O)Nc2ccc3ccncc3c2)c1C` [YA61691, N-(Isoquinolin-7-yl)-5-methyl-1-(o-tolyl)-1H-1,2,3-triazole-4-carboxamide], in that order: over 1000 nM and over 92000 nM.
For the molecule `O=C(Nc1ccc2ccccc2n1)c1nnn(-c2ccccc2Cl)n1` [YA70033, 2-(2-Chlorophenyl)-N-(quinolin-2-yl)-2H-tetrazole-5-carboxamide], the IC50 in data set [1] was over 1000 nM. Moreover, in data set [2], the CC50 is over 92000 nM.
The matching figures for `Cc1ccccc1-n1nnc(C(=O)Nc2cc(Br)c3ccccc3n2)c1C` [YA6150, N-(4-bromoquinolin-2-yl)-5-methyl-1-(o-tolyl)-1H-1,2,3-triazole-4-carboxamide]: over 1000 nM and over 92000 nM.
Turning to `Cc1ccccc1-n1cc(C(=O)Nc2ccc3ccccc3n2)nn1` [YA70131, N-(Quinolin-2-yl)-1-(o-tolyl)-1H-1,2,3-triazole-4-carboxamide], the IC50 in data set [1] was over 1000 nM. The molecule also returned a CC50 in data set [2] of over 92000 nM.
For `Cc1c(C(=O)Nc2nc3ccccc3s2)nnn1-c1cccc(F)c1` [YA1072, N-(Benzo[d]thiazol-2-yl)-1-(3-fluorophenyl)-5-methyl-1H-1,2,3-triazole-4-carboxamide], in data set [1], 1 µM produced 42% inhibition and the IC50 is over 1000 nM. In addition, the CC50 in data set [2] was over 92000 nM.
Turning to `Cc1c(C(=O)Nc2cnc3ccccc3n2)nnn1-c1ccccc1Cl` [YA6139, 1-(2-Chlorophenyl)-5-methyl-N-(quinoxalin-2-yl)-1H-1,2,3-triazole-4-carboxamide], the IC50 in data set [1] came to 0.11 nM. In data set [2], the CC50 is over 92000 nM.
With `Cc1ccccc1-n1nnc(C(=O)Nc2nc3c(F)cccc3s2)c1C` [YA4093, N-(4-Fluorobenzo[d]thiazol-2-yl)-5-methyl-1-(o-tolyl)-1H-1,2,3-triazole-4-carboxamide], in data set [1], the inhibition at 1 µM worked out at 37% and the IC50 is over 1000 nM. In data set [2], this molecule gave a CC50 of over 92000 nM.
`Cc1c(C(=O)Nc2nc3ccccc3s2)cnn1-c1ccccc1Cl` [YA4025, N-(Benzo[d]thiazol-2-yl)-1-(2-chlorophenyl)-5-methyl-1H-pyrazole-4-carboxamide]: in data set [1], the IC50 was determined as 0.4 nM. Moreover, in data set [2], the CC50 is over 92000 nM.
As for `Cc1cccc(Cl)c1-n1nnc(C(=O)Nc2nc3ccccc3s2)c1C` [YA1068, N-(Benzo[d]thiazol-2-yl)-1-(2-chloro-6-methylphenyl)-5-methyl-1H-1,2,3-triazole-4-carboxamide], in data set [1], the inhibition at 1 µM was 80% and the IC50 was 35 nM. Further, in data set [2], the CC50 is over 92000 nM.
Turning to `Cc1ccccc1-n1ncc(C(=O)Nc2ncc(-c3ccccc3)s2)c1C` [YA7019, 5-Methyl-N-(5-phenylthiazol-2-yl)-1-(o-tolyl)-1H-pyrazole-4-carboxamide], the IC50 in data set [1] was over 1000 nM. For the same molecule, the CC50 in data set [2] was over 92000 nM.
With `Cc1ccccc1-n1nnc(C(=O)Nc2ccc3ncccc3n2)c1C` [YA6147, 5-Methyl-N-(1,5-naphthyridin-2-yl)-1-(o-tolyl)-1H-1,2,3-triazole-4-carboxamide], the IC50 in data set [1] is over 1000 nM. In addition, in data set [2], the cytotoxic concentration (CC50) is over 92000 nM.

One may read the IC50 as the midpoint of a concentration-inhibition curve. Usually CC50 stands for the concentration that lowers cell viability or growth by half. Read a low CC50 as harm at low concentration. By inhibition is commonly meant how much of the control response was suppressed. Lower therefore signals a response near the control.
